Data as given in ChEMBL document CHEMBL4145686, “Discovery of a Potent and Selective Steroidal Glucocorticoid Receptor Antagonist (ORIC-101)” (J Med Chem, 2018).

Tests used:
Type in all cases: cell-based
Glucocorticoid receptor = molecular target: T1, Glucocorticoid receptor (Homo sapiens, UniProt P04150); test: Antagonist activity at human GR expressed in CHO-K1 cells assessed as reduction in dexamethasone-induced response incubated for 20 hrs by luciferase reporter gene assay
T1 sequence (P04150 whole entry): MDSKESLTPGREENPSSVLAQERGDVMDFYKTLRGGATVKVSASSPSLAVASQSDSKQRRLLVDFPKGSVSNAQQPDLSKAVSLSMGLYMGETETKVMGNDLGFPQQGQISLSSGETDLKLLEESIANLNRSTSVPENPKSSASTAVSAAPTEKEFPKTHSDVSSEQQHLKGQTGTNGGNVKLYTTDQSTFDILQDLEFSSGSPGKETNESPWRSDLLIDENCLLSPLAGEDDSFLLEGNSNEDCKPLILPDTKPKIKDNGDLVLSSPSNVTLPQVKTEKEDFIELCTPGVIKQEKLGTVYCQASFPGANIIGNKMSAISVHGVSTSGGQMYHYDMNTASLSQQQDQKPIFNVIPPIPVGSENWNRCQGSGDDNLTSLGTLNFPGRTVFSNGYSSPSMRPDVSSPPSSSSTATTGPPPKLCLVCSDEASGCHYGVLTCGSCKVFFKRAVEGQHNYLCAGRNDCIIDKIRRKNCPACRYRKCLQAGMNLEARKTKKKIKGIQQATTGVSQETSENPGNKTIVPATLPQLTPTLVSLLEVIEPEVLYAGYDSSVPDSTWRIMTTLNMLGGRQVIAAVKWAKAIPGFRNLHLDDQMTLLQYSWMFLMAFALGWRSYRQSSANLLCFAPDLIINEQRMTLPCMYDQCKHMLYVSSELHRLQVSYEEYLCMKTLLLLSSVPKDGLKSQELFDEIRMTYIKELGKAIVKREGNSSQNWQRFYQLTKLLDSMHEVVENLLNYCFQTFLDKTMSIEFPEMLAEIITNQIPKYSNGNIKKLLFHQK

androgen receptor (AR) = molecular target: T2, androgen receptor (AR) (Homo sapiens, UniProt P10275); test: Agonist activity at AR (unknown origin) expressed in human LNCaP cells incubated for 20 hrs by luciferase reporter gene assay relative to mifepristone; conditions: human LNCaP cells expressing AR
T2 sequence (P10275 whole entry): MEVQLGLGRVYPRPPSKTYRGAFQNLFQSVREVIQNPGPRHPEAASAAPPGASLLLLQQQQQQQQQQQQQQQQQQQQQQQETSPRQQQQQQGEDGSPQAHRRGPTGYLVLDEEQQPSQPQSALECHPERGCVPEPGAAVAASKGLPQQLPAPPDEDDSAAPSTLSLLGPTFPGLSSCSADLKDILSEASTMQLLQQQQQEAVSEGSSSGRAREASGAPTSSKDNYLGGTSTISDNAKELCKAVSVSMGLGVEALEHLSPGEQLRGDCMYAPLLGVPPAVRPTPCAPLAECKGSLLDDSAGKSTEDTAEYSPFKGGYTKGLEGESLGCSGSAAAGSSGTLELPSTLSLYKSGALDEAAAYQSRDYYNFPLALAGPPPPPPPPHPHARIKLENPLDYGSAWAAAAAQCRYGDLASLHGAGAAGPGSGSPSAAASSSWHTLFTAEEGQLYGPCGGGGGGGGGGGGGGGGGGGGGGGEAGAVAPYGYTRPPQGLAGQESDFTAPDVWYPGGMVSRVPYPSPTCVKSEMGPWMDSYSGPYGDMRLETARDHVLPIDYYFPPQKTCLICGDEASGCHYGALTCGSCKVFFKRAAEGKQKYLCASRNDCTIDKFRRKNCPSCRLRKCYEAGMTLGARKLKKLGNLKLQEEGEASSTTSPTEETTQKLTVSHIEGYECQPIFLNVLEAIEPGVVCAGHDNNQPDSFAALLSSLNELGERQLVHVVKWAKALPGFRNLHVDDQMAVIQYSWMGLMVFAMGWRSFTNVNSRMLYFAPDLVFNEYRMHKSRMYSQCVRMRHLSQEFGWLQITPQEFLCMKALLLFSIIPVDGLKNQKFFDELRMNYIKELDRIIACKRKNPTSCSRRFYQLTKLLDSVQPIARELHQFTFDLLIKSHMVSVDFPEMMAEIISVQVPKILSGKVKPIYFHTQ

Androgen receptor = molecular target: T3, Androgen receptor (Homo sapiens, UniProt P10275); test: Antagonist activity at AR (unknown origin) expressed in human LNCaP cells assessed as reduction in R1881-induced response incubated for 20 hrs by luciferase reporter gene assay
T3 sequence (P10275 whole entry): T2 sequence (P10275 whole entry)

Compound: CC(C)N(C)c1ccc([C@H]2C[C@@]3(C)[C@@H](CC[C@@]3(O)C#CC(C)(C)C)[C@@H]3CCC4=CC(=O)CC[C@@H]4[C@H]32)cc1
- IC50 (Glucocorticoid receptor): 5.6 nM
- Emax at 20 h (androgen receptor (AR)): 11%
- IC50 (Androgen receptor): 484 nM
